Some results are limits rather than exact numbers.

Data set [1] relates to DENV2 replicon. The data set can be described thus: microbe, parasite or virus in culture. It is filed as cell-based, Dengue Virus 2 (DENV2). The settings on record: for inhibition at 50 µM / EC50: Dengue virus; for inhibition at 50 µM: DENV2, BHK-21, read-out: % Replicon Inhibition (Means ± SEM) DENV2; for EC50: DENV2, BHK-21, read-out: DENV replicon EC50. In general terms: A replicon is a self-replicating genome or part of one, used to study replication in cells.

Data set [2] concerns WNV replicon. The data set can be described thus: microbe, parasite or virus in culture. The settings on record: for inhibition at 50 µM / EC50: West Nile virus, Vero; for inhibition at 50 µM: read-out: % Replicon Inhibition (Means ± SEM) WNV; for EC50: read-out: WNV replicon EC50. It is filed as cell-based, West Nile virus (WNV).
Data set [3] in a line: in vitro. The settings on record: hamster.
Data set [4] is described as follows: in vitro. The settings on record: African green monkey.
The test system of data set [5] is BHK-21 cells. The settings on record: hamster.
In data set [6] the test system is Vero cells. The note with it: African green monkey.

The inhibition is how much of the control response was suppressed. What is called EC50 is the concentration that produces a half-maximal response. Turning to `CC(CCc1ccc(N(CCCl)CCCl)cc1)Nc1ccnc2cc(Cl)ccc12` (stereo not shown) [chloroquine ethyl phenyl mustard], in data set [1], the “% Replicon Inhibition (Means ± SEM) DENV2” value is listed as 99.8 ± 0.03%, the inhibition at 50 µM was more than 99% and the EC50 is 3.6 ± 0.83 µM. Further, in data set [2], the “% Replicon Inhibition (Means ± SEM) WNV” value was 99.5 ± 0.05%, the inhibition at 50 µM is more than 99% and the EC50 was found to be 1.55 ± 0.4 µM. For the same compound, the CC50 in data set [3] stood at 74.1 ± 21.5 µM. In data set [4], this compound displayed a CC50 of 5.02 ± 1.23 µM.
As to `CC(CCCN(CCCl)CCCl)Nc1ccnc2cc(Cl)ccc12` (stereo not shown) [chloroquine mustard], in data set [1], the “% Replicon Inhibition (Means ± SEM) DENV2” value was found to be 99.6 ± 0.32%, the inhibition at 50 µM is more than 99% and the EC50 is 2.9 ± 0.78 µM. For the same compound, in data set [2], the “% Replicon Inhibition (Means ± SEM) WNV” value stood at 99.8 ± 0.03%, the inhibition at 50 µM is more than 99% and the 50% effective concentration (EC50) was 2.95 ± 0.77 µM. The compound further registered a CC50 in data set [5] of 30.5 ± 9.77 µM. For the same compound, the CC50 in data set [6] turned out to be 3.64 ± 0.93 µM.

(Values after patent publication US20170165254A1, “TREATING FLAVIVIRUS INFECTIONS WITH AMODIAQUINE AND DERIVATIVES THEREOF” (GEORGETOWN UNIVERSITY, priority 2014, published 2017).)
